Source: patent publication US5837862A, “Sialyl Lewis X mimetics incorporating mannopeptides” (The Scripps Research Institute, priority 1996, dated 1998)

What was measured:
lung injury in rats = conditions: cited from earlier work
[1] = in vivo; cited from earlier work
glycosidase = conditions: because of glycosidase reductions; cited from earlier work
E-selectin = molecular target: T1, E-selectin (Homo sapiens, UniProt P16581); assay: E-selectin inhibition assay (Weitz-Schmidt et al.); type: binding
T1 sequence (P16581 22-610): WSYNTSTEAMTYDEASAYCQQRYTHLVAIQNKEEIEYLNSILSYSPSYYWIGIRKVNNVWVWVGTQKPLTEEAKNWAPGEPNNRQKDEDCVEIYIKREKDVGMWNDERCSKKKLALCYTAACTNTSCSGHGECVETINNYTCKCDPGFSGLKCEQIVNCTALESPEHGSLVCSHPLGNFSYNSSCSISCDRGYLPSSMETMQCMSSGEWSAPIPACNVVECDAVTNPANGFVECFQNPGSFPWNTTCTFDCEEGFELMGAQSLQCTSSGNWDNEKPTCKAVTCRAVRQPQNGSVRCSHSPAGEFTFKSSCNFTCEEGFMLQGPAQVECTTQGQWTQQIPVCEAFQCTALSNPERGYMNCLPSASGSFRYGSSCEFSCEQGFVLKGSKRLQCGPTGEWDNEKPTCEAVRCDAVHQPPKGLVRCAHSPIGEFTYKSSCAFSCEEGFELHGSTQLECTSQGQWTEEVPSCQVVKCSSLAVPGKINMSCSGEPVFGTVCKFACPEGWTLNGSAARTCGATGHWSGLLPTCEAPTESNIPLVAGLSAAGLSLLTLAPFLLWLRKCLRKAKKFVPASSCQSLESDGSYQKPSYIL

P-selectin = molecular target: T2, P-selectin (Homo sapiens, UniProt P16109); assay: P-selectin inhibition assay; type: binding; conditions: at 3 mM
T2 sequence (P16109 42-830): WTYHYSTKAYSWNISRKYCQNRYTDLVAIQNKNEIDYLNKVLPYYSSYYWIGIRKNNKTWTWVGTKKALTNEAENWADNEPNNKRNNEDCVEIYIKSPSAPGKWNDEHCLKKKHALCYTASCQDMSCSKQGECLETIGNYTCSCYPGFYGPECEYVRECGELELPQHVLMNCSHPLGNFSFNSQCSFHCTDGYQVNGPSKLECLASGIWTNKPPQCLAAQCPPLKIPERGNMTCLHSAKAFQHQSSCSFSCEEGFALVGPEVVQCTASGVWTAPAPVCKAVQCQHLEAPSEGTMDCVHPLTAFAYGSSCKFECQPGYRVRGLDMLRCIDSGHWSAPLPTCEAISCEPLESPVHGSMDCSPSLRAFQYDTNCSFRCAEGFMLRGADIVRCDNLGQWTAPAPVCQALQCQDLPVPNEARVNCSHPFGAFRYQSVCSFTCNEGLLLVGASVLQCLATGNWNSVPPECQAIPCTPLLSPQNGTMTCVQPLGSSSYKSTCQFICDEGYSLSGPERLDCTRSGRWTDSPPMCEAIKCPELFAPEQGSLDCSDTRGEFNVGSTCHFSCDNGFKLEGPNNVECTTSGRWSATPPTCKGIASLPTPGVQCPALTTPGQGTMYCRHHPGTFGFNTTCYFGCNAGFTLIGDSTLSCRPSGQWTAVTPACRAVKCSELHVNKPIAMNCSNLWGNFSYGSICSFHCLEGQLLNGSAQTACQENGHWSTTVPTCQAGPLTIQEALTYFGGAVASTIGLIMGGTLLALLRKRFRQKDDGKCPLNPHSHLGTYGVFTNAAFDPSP

L-selectin = molecular target: T3, L-selectin (Homo sapiens, UniProt P14151); assay: L-selectin inhibition assay; type: binding; conditions: at 3 mM
T3 sequence (P14151 39-372): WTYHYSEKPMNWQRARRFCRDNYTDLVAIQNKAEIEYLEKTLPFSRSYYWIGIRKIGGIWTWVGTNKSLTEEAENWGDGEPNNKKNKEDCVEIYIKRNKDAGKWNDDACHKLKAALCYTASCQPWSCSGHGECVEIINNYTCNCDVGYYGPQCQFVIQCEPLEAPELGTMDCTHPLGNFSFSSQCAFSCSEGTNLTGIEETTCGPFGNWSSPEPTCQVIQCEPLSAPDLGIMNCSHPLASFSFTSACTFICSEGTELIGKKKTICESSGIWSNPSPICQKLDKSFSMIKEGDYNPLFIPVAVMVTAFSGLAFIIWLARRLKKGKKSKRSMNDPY

Molecule	effective intravenous concentration (lung injury in rats; rat, intravenous infusion of up to 200 μg, calculated)	effect on lung injury (lung injury in rats; rat, intravenous infusion of up to 200 μg, cobra venom)	IC50 (lung injury in rats; rats, read-out: IC50 value in vivo for protecting against lung injury)	oral activity [1]	stability in the blood stream (glycosidase)	IC50 (E-selectin)	activity relative to SLex (E-selectin; versus SLex)	inhibition of P-selectin (P-selectin)	inhibition of L-selectin (L-selectin)
NeuAcα2→3Galβ1→4(Fucα1→3)GlcNAc [SLex]	less than 1 μM	dramatically reduced lung injury	~1 µM	orally inactive	unstable in the blood stream				
O=C(O)CNC(=O)[C@@H](O)[C@H](O)C[C@H]1O[C@H](CO)[C@@H](O)[C@H](O)[C@@H]1O [Mimetic 5, (2S,3R)-N-Carboxylmethyl-2,3-dihydroxy-4-(α-D -mannopyranosyl)-butyramide]						160 µM	3 fold	does not inhibit	does not inhibit
